In PMC9694798, “Resveratrol Analogues as Dual Inhibitors of Monoamine Oxidase B and Carbonic Anhydrase VII: A New Multi-Target Combination for Neurodegenerative Diseases?” (Molecules, 2022):
“And” between values parts separate entries of the source, which are not always exact repeats. Equal entries are not always repeated.

How the values were obtained:
[1] = biological target: T1, hCA VA (Homo sapiens, UniProt P35218); experiment: CA inhibition, stopped-flow CO2 hydration assay; type: biochemical; settings: stopped-flow technique; mean of three experiments, errors ±5–10%
T1 construct: His-tag (N); made in house; host or cells: Escherichia coli BL21 (DE3)
T1 sequence (P35218 39-305): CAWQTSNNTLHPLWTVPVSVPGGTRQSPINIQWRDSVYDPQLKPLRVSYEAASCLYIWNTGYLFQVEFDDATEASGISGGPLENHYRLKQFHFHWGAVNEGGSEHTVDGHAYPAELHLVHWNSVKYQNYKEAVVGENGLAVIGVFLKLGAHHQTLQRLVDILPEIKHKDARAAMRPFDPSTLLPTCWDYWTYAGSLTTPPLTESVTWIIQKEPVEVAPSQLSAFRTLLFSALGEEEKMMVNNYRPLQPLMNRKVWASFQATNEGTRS

[2] = biological target: T2, hCA XII (Homo sapiens, UniProt O43570); experiment: CA inhibition, stopped-flow CO2 hydration assay; type: biochemical; settings: stopped-flow technique; mean of three experiments, errors ±5–10%
T2 construct: His-tag (N); made in house; host or cells: Escherichia coli BL21 (DE3)
T2 sequence (O43570 25-354): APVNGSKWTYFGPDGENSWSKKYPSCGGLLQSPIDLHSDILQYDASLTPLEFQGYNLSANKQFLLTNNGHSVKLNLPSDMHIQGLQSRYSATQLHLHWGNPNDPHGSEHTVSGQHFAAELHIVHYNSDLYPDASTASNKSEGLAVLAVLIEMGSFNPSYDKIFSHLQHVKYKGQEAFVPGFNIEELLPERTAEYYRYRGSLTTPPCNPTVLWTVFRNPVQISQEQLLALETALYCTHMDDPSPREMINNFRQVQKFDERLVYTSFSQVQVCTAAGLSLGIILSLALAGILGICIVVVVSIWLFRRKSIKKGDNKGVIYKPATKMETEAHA

[3] = biological target: hCA VII (Homo sapiens, UniProt P43166); experiment: CA inhibition, stopped-flow CO2 hydration assay
hCA VII, sequence (P43166 whole entry): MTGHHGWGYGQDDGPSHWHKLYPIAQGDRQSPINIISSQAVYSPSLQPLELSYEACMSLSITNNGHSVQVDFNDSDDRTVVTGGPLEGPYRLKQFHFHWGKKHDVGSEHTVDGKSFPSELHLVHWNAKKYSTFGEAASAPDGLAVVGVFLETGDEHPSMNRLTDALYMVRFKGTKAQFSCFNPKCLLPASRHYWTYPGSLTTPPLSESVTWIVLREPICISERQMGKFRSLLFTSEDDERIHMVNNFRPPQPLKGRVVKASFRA

[4] = biological target: T3, hCA I (Homo sapiens, UniProt P00915); experiment: CA inhibition, stopped-flow CO2 hydration assay; type: biochemical; settings: for Ki: stopped-flow technique, mean of three experiments, errors ±5–10%
T3 construct: His-tag (N); made in house; host or cells: Escherichia coli BL21 (DE3)
T3 sequence (P00915 whole entry): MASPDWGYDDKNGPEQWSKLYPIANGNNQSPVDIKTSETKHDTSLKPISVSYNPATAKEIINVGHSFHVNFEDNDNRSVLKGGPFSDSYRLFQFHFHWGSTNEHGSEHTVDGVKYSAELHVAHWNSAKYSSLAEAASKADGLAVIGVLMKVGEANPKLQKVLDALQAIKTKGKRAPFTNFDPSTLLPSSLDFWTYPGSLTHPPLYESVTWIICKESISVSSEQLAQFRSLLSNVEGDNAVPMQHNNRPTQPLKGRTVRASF

[5] = biological target: T4, Recombinant human MAO-B (Homo sapiens, UniProt P27338); experiment: In vitro MAO-B inhibition assay (kynuramine, fluorescence); type: biochemical; settings: kynuramine substrate, mean ± S.D. of three independent experiments
T4 construct: purchased Sigma-Aldrich
T4 sequence (P27338 1-520): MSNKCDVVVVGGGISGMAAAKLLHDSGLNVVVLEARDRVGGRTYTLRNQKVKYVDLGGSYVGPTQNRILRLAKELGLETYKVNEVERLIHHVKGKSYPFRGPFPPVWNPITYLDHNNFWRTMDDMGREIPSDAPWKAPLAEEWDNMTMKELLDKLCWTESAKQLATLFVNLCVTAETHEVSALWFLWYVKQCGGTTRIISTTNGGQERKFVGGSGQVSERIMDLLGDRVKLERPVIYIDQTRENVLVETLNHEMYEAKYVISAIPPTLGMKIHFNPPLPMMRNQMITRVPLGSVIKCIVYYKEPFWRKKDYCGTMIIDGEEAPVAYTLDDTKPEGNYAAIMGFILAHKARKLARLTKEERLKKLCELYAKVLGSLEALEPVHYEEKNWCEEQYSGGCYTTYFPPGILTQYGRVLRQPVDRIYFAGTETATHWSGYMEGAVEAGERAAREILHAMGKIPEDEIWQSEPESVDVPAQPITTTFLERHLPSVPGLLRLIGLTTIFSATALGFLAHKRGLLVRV

[6] = biological target: T5, hCA IX (Homo sapiens, UniProt Q16790); experiment: CA inhibition, stopped-flow CO2 hydration assay; type: biochemical; settings: stopped-flow technique; mean of three experiments, errors ±5–10%
T5 construct: His-tag (N); made in house; host or cells: Escherichia coli BL21 (DE3)

[7] = biological target: T6, Recombinant human MAO-A (Homo sapiens, UniProt P21397); experiment: In vitro MAO-A inhibition assay (kynuramine, fluorescence); type: biochemical; settings: kynuramine substrate, mean ± S.D. of three independent experiments
T6 construct: purchased Sigma-Aldrich
T6 sequence (P21397 1-527): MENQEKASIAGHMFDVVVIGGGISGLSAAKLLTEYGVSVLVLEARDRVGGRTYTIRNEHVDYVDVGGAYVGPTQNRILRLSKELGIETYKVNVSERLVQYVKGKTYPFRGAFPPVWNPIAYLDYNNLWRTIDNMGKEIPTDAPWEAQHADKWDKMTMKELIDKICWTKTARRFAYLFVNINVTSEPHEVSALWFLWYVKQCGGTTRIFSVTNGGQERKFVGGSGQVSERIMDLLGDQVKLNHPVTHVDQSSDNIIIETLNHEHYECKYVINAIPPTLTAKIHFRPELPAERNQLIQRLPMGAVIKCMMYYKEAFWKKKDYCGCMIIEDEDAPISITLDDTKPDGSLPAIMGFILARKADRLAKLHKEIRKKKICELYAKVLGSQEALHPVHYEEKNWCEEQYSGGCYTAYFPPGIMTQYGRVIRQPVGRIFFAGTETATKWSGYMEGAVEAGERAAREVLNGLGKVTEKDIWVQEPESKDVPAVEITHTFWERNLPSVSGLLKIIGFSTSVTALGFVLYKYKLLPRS

[8] = biological target: T7, hCA VB (Homo sapiens, UniProt Q9Y2D0); experiment: CA inhibition, stopped-flow CO2 hydration assay; type: biochemical; settings: stopped-flow technique; mean of three experiments, errors ±5–10%
T7 construct: His-tag (N); made in house; host or cells: Escherichia coli BL21 (DE3)
T7 sequence (Q9Y2D0 34-317): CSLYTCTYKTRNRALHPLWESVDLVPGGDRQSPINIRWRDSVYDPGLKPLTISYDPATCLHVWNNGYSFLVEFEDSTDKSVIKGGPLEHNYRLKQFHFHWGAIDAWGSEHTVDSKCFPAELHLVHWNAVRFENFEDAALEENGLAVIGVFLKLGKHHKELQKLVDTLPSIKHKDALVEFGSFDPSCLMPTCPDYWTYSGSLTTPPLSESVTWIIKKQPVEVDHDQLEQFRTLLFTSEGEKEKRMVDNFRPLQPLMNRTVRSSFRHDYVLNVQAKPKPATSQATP

[9] = biological target: T8, hCA II (Homo sapiens, UniProt P00918); experiment: CA inhibition, stopped-flow CO2 hydration assay; type: biochemical; settings: for Ki: stopped-flow technique, mean of three experiments, errors ±5–10%
T8 construct: His-tag (N); made in house; host or cells: Escherichia coli BL21 (DE3)

[10] = test system: MAO; set-up: method as in PMID 30809547; settings: cited from earlier work
[11] = test system: MAO-B; set-up: method as in PMID 7699569; settings: cited from earlier work

Row | SMILES | Ki [1] | Ki [2] | Ki [3] | Ki [4] | IC50 [5] | Ki [6] | IC50 [7] | Ki [8] | Ki [9] | inhibitory activities against hCA I, VA, and VB lower than against hCA VII ([4]; hCA I, VA, VB vs hCA VII) | inhibition potency against hCA II weaker than against hCA VII ([9]; hCA II vs hCA VII) | mechanism of MAO inhibition [10] | IC50 [11]
1 | Oc1ccc(/C=C/c2ccccc2)cc1Cl [Compound 1] | 9 µM | 2.7 µM | > 100 µM | 89.5 µM | 0.156 ± 0.009 µM | 23.6 µM | 3.06 ± 0.1 µM | 84.5 µM | 35.8 µM | – | – | – | –
2 | Oc1ccc(/C=C/c2ccc(Cl)cc2Cl)cc1Cl [Compound 2] | 37.2 µM | 4.5 µM | 4.2 µM | > 100 µM | 1.44 ± 0.035 µM | 81.1 µM | 2.02 ± 0.175 µM | 32.2 µM | > 100 µM | – | – | – | –
3 | Oc1ccc(/C=C/c2ccc(Cl)cc2Cl)cc1 [Compound 3] | 86 µM | > 100 µM | 7.5 µM | > 100 µM | 1.52 ± 0.067 µM | > 100 µM | 1.79 ± 0.095 µM | > 100 µM | > 100 µM | – | – | – | –
4 | Oc1ccc(/C=C/c2ccc(C(F)(F)F)cc2)cc1Cl [Compound 4] | 70.9 µM | 6.9 µM | 0.7 µM | 86.8 µM | 0.011 ± 0.0065 µM | 17.4 µM | 0.43 µM and 0.433 µM | 36.2 µM | 15.6 µM | up to 120 fold | about 22 fold | – | –
5 | Oc1ccc(/C=C/c2ccc(C(F)(F)F)cc2)cc1 [Compound 5] | 83 µM | > 100 µM | > 100 µM | > 100 µM | 14.2 ± 1.82 µM | 94.6 µM | 9.77 ± 0.553 µM | 8.7 µM | 43.4 µM | – | – | – | –
6 | N#Cc1ccc(/C=C/c2ccc(O)cc2)cc1 [Compound 6] | > 100 µM | > 100 µM | 7.4 µM | > 100 µM | 0.103 ± 0.003 µM | > 100 µM | 2.01 ± 0.033 µM | 9.5 µM | 75.3 µM | – | – | – | –
7 | COc1ccc(/C=C/c2ccc(O)cc2)cc1 [Compound 7] | > 100 µM | > 100 µM | 9.4 µM | > 100 µM | 0.185 ± 0.009 µM | 81.8 µM | 2.71 ± 0.016 µM | 9.7 µM | > 100 µM | – | – | – | –
8 | Oc1ccc(C=Cc2cc(O)cc(O)c2)cc1 [RSV, 3,4′,5-trihydroxystilbene, reference compound] | 4.7 µM | 0.9 µM | 4.3 µM | 2.2 µM | > 100 µM | 0.8 µM | – | 4.6 µM | 2.8 µM | – | – | competitive | –
